Source: the NIST ThermoML archive (doi:10.1021/acs.jced.8b00103)
± gives the expanded uncertainty stated by the source.

Key:
[1] = refractive index (Na D-line) (dimensionless); details: 293.15 K; 101.33 kPa; Liquid; Standard Abbe refractometry
[2] = Liquid; for mass density: 101 kPa, Vibrating tube method; for vapor or sublimation pressure: Ebulliometric method (Recirculating still)
[3] = xn = mol fraction of the nth substance listed; details: 101 kPa, Liquid, Vibrating tube method

What does the source list for `CC(C)CO` [2-methyl-1-propanol]?
refractive index [1]: 1.3962 ± 0.0004; mass density ([2]; 333.15 K): 769.49 ± 0.15 kg/m3; vapor or sublimation pressure ([2]; 333.15 K): 12.3 ± 0.2 kPa; mass density ([2]; 343.15 K): 760.79 ± 0.16 kg/m3; vapor or sublimation pressure ([2]; 343.15 K): 21 ± 0.2 kPa; mass density ([2]; 353.15 K): 751.86 ± 0.16 kg/m3; vapor or sublimation pressure ([2]; 353.15 K): 32.7 ± 0.2 kPa

For `CC(C)O` [propan-2-ol] + CC(C)CO, which mass density ([3]; 333.15 K, x1 = 1) is on record?
Its mass density is 749.23 ± 0.16 kg/m3.

What about the mass density ([3]; 343.15 K, x1 = 1) of the same compound?
The mass density was 739.46 ± 0.17 kg/m3.

What about the mass density ([3]; 353.15 K, x1 = 1) of the same compound?
The mass density was 729.1 ± 0.17 kg/m3.

Which mass density ([3]; 333.15 K, x2 = 0) does the source give for `CC(C)CO` [2-methyl-1-propanol] + CC(C)O here?
Its mass density is 769.49 ± 0.15 kg/m3.

What about the mass density ([3]; 333.15 K, x2 = 0.042) of the same compound?
The mass density was 768.8 ± 0.15 kg/m3.

And the mass density ([3]; 333.15 K, x2 = 0.1428)?
The mass density was 767.1 ± 0.16 kg/m3.

And the mass density ([3]; 333.15 K, x2 = 0.1913)?
The mass density was 766.26 ± 0.16 kg/m3.

What about the mass density ([3]; 333.15 K, x2 = 0.2906) of the same compound?
The mass density was 764.49 ± 0.16 kg/m3.

And the mass density ([3]; 333.15 K, x2 = 0.3911)?
Its mass density is 762.62 ± 0.16 kg/m3.

And the mass density ([3]; 333.15 K, x2 = 0.4444)?
The mass density was 761.6 ± 0.16 kg/m3.

What about the mass density ([3]; 333.15 K, x2 = 0.4993) of the same compound?
Its mass density is 760.52 ± 0.16 kg/m3.

What about the mass density ([3]; 333.15 K, x2 = 0.5485) of the same compound?
Its mass density is 759.52 ± 0.16 kg/m3.

And the mass density ([3]; 333.15 K, x2 = 0.594)?
The mass density was 758.58 ± 0.16 kg/m3.

And the mass density ([3]; 333.15 K, x2 = 0.6911)?
Its mass density is 756.5 ± 0.16 kg/m3.

What about the mass density ([3]; 333.15 K, x2 = 0.7445) of the same compound?
The mass density was 755.31 ± 0.16 kg/m3.

And the mass density ([3]; 333.15 K, x2 = 0.8481)?
The mass density was 752.91 ± 0.16 kg/m3.

What about the mass density ([3]; 333.15 K, x2 = 0.8925) of the same compound?
The mass density was 751.85 ± 0.16 kg/m3.

And the mass density ([3]; 333.15 K, x2 = 0.9491)?
Its mass density is 750.48 ± 0.17 kg/m3.

And the mass density ([3]; 343.15 K, x2 = 0)?
The mass density was 760.79 ± 0.16 kg/m3.

What about the mass density ([3]; 343.15 K, x2 = 0.042) of the same compound?
The mass density was 760.07 ± 0.16 kg/m3.

And the mass density ([3]; 343.15 K, x2 = 0.1428)?
The mass density was 758.28 ± 0.16 kg/m3.

What about the mass density ([3]; 343.15 K, x2 = 0.1913) of the same compound?
The mass density was 757.39 ± 0.16 kg/m3.

And the mass density ([3]; 343.15 K, x2 = 0.2906)?
Its mass density is 755.53 ± 0.16 kg/m3.

And the mass density ([3]; 343.15 K, x2 = 0.3911)?
Its mass density is 753.57 ± 0.16 kg/m3.

What about the mass density ([3]; 343.15 K, x2 = 0.4444) of the same compound?
Its mass density is 752.49 ± 0.16 kg/m3.

What about the mass density ([3]; 343.15 K, x2 = 0.4993) of the same compound?
The mass density was 751.36 ± 0.16 kg/m3.

And the mass density ([3]; 343.15 K, x2 = 0.5485)?
Its mass density is 750.32 ± 0.16 kg/m3.

What about the mass density ([3]; 343.15 K, x2 = 0.594) of the same compound?
The mass density was 749.33 ± 0.16 kg/m3.

And the mass density ([3]; 343.15 K, x2 = 0.6911)?
Its mass density is 747.14 ± 0.17 kg/m3.

And the mass density ([3]; 343.15 K, x2 = 0.7445)?
The mass density was 745.88 ± 0.17 kg/m3.

And the mass density ([3]; 343.15 K, x2 = 0.8481)?
The mass density was 743.36 ± 0.17 kg/m3.

What about the mass density ([3]; 343.15 K, x2 = 0.8925) of the same compound?
The mass density was 742.24 ± 0.17 kg/m3.

What about the mass density ([3]; 343.15 K, x2 = 0.9491) of the same compound?
Its mass density is 740.78 ± 0.17 kg/m3.

What about the mass density ([3]; 353.15 K, x2 = 0) of the same compound?
The mass density was 751.86 ± 0.16 kg/m3.

What about the mass density ([3]; 353.15 K, x2 = 0.042) of the same compound?
The mass density was 751.1 ± 0.16 kg/m3.

And the mass density ([3]; 353.15 K, x2 = 0.1428)?
Its mass density is 749.19 ± 0.16 kg/m3.

What about the mass density ([3]; 353.15 K, x2 = 0.1913) of the same compound?
Its mass density is 748.25 ± 0.16 kg/m3.

And the mass density ([3]; 353.15 K, x2 = 0.2906)?
Its mass density is 746.26 ± 0.16 kg/m3.

What about the mass density ([3]; 353.15 K, x2 = 0.3911) of the same compound?
The mass density was 744.18 ± 0.17 kg/m3.

What about the mass density ([3]; 353.15 K, x2 = 0.4444) of the same compound?
Its mass density is 743.03 ± 0.17 kg/m3.

And the mass density ([3]; 353.15 K, x2 = 0.4993)?
The mass density was 741.83 ± 0.17 kg/m3.

And the mass density ([3]; 353.15 K, x2 = 0.5485)?
Its mass density is 740.72 ± 0.17 kg/m3.

What about the mass density ([3]; 353.15 K, x2 = 0.594) of the same compound?
The mass density was 739.66 ± 0.17 kg/m3.

And the mass density ([3]; 353.15 K, x2 = 0.6911)?
The mass density was 737.33 ± 0.17 kg/m3.

What about the mass density ([3]; 353.15 K, x2 = 0.7445) of the same compound?
Its mass density is 735.99 ± 0.17 kg/m3.

What about the mass density ([3]; 353.15 K, x2 = 0.8481) of the same compound?
Its mass density is 733.3 ± 0.17 kg/m3.

And the mass density ([3]; 353.15 K, x2 = 0.8925)?
The mass density was 732.1 ± 0.17 kg/m3.

And the mass density ([3]; 353.15 K, x2 = 0.9491)?
The mass density was 730.53 ± 0.17 kg/m3.

Which refractive index [1] does the source give for `CC(C)O` [propan-2-ol] here?
Its refractive index is 1.3774 ± 0.0004.

And the mass density ([2]; 333.15 K)?
The mass density was 749.23 ± 0.16 kg/m3.

And the “vapor or sublimation pressure” value ([2]; 333.15 K)?
The value was 38.5 ± 0.3 kPa.

And the mass density ([2]; 343.15 K)?
The mass density was 739.46 ± 0.17 kg/m3.

What about the “vapor or sublimation pressure” value ([2]; 343.15 K) of the same compound?
The value was 61.1 ± 0.3 kPa.

What about the mass density ([2]; 353.15 K) of the same compound?
Its mass density is 729.1 ± 0.17 kg/m3.

And the “vapor or sublimation pressure” value ([2]; 353.15 K)?
Its value is 92.3 ± 0.4 kPa.
